Reference: US20090074716A1, “METHOD FOR TREATING INFLUENZA VIRUS INFECTION” (priority 2006, published 2009)
Entries after “also recorded” stand apart in the source; their conditions may differ. Where a SMILES comes first, the peptide text is derived from it. The star is where a group is joined. Cbz = O=C(OCc1ccccc1)*

Key:
[1] = tested on: avian influenza A virus A/FPV/Bratislava/79; set-up: species or system C57B1/6 mice; settings: mouse, in vivo
[2] = tested on: TRAIL and FasL/CD95L; type: cell-based, human
[3] = tested on: avian influenza A virus A/FPV/Bratislava/79; type: cell-based, human lung epithelium cell line A549
[4] = tested on: 26S proteasome; settings: cited from earlier work
[5] = after intravenous application; cited from earlier work
[6] = tested on: avian influenza virus A/FPV/Bratislava/79 (H7N7); type: cell-based, human A549 lung epithelium carcinoma cells
[7] = tested on: IκBα; assay: TNFα-induced IκBα degradation (NF-κB activation), Western blot, HEK293 cells; type: cell-based; settings: 1 h pre-incubation, 15 min TNFα
[8] = tested on: IκBα; assay: TNFα-induced IκBα degradation (NF-κB activation), Western blot, A549 cells; type: cell-based, human; settings: 1 h pre-incubation, 15 min TNFα

Question: Which “survival rate of infected mice versus untreated controls” value [1] does the source give for `CC(C)C[C@@H](C=O)NC(=O)[C@H](CC(C)C)NC(=O)[C@H](CC(C)C)NC(=O)OCc1ccccc1` [MG132, N-carbobenzoxy-L-leucinyl-L-leucinyl-L-leucinal] (Cbz-Leu-Leu-Leu-aldehyde) here?
Answer: significantly increased

Question: What about the “virus-induced expression of FasL” value [2] of the same compound?
Answer: clearly reduced; also recorded: blocks

Question: What about the “virus-induced expression of TRAIL” value [2] of the same compound?
Answer: clearly reduced; also recorded: blocks

Question: What about the influenza virus replication [3] of the same compound?
Answer: blocks

Question: And the “reduction of the virus titre” value [3]?
Answer: up to 10 times

Question: For `CC(C)c1nc(CN(C)C(=O)N[C@H](C(=O)N[C@@H](Cc2ccccc2)C[C@H](O)[C@H](Cc2ccccc2)NC(=O)OCc2cncs2)C(C)C)cs1` [Ritonavir], which “concentration with unspecific effect on the proteasome” value [4] is on record?
Answer: approx. 10 micrograms

Question: With `CC(C)C[C@H](NC(=O)[C@H](Cc1ccccc1)NC(=O)c1cnccn1)B(O)O` [PS341, pyranosyl-phenyl-leucinyl-boric acid] as the compound, how does the biological availability [5] read?
Answer: biologically available

Question: What about the “reduction of the virus titre” value [6] of the same compound?
Answer: over 2 logarithmic levels

Question: What about the “prevention of TNFα-induced IκBα-degradation” value ([7]; 100 nM) of the same compound?
Answer: not in a position to prevent

Question: And the “prevention of TNFα-induced IκBα-degradation” value ([8]; 100 nM)?
Answer: not in a position to prevent

Question: Which “reduction of the virus titre” value [6] does the source give for `CC(=O)N[C@@H](CSC(=O)[C@]1([C@@H](O)C(C)C)NC(=O)[C@H](C)[C@@H]1O)C(=O)O` [lactacysteine] here?
Answer: reduction

Question: What about the “blocking of TNFα-induced IκBα-degradation” value ([7]; 1 μM) of the same compound?
Answer: not effective enough to block

Question: And the “blocking of TNFα-induced IκBα-degradation” value ([8]; 1 μM)?
Answer: not effective enough to block
